According to US11021481B2, “Substituted isoindolin-1-ones and 2,3-dihydro-1h-pyrrolo[3,4-c]pyridin-1-ones as HPK1 antagonists” (Nimbus Saturn, Inc., priority 2019, dated 2021):

These compounds were tested against HPK1 (Homo sapiens (Human), UniProt Q92918) (assay: HPK1 biochemical enzyme assay (microfluidic mobility shift assay)). Details: 1.5 nM HPK1, ATP 1 mM final, 30 min preincubation, 60 min at RT, Caliper EZ Reader; read-out: HPK1 1000UMATP caliper IC50.
Chain of HPK1 (Q92918 whole entry): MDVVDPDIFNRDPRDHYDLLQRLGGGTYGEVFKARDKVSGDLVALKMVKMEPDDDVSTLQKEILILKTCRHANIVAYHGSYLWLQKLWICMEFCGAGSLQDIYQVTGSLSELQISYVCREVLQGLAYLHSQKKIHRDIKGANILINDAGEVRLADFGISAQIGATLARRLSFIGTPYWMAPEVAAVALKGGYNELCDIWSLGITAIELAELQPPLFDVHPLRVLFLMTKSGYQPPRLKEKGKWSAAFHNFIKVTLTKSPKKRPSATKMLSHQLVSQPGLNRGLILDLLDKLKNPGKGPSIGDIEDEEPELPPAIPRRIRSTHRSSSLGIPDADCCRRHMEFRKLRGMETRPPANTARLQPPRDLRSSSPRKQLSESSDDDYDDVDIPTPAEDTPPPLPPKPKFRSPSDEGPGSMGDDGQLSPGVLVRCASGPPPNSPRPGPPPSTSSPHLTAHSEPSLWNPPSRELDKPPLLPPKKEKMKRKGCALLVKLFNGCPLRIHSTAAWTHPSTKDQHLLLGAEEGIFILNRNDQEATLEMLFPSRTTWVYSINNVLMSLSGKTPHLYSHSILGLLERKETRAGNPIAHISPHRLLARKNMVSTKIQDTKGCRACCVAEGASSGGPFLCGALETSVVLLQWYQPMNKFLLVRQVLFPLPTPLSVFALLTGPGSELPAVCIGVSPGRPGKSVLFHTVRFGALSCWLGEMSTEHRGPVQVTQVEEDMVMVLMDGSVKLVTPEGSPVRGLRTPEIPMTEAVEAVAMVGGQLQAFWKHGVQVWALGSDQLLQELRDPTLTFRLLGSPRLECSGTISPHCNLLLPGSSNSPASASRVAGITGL
How it was run: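 Mobility shift readout of HPK1 activity after a 60 min RT reaction with 1 mM ATP, 1 μM substrate and 5 mM MgCl2. Enzyme/substrate mix was first exposed to compounds for 30 min, using ten-point curves topping at 3 μM final.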
`Cc1c(F)ccn2c(-c3ccc(Nc4ccc(N5CCC(O)CC5)cn4)c4c3CNC4=O)cnc12` [I-209, 4-(7-fluoro-8-methyl-imidazo[1,2-a]pyridin-3-yl)-7-[[5-(4-hydroxy-1-piperidyl)-2-pyridyl]amino] isoindolin-1-one] was tested, and the IC50 was < 100 nM. In the case of `CC(C)(O)[C@H]1CCCN(c2ccc(Nc3cnc(-c4cnc5ccccn45)c4c3C(=O)NC4)nc2)C1` [I-210, 7-[[5-[(3S)-3-(1-hydroxy-1-methyl-ethyl)-1-piperipyl]-2-pyridyl]-amino]-4-imidazo[1,2-a]pyridin-3-yl-2.3-dihydropyrrolo [3,4-c]pyridin-1-one], the IC50 is reported as < 100 nM. In the case of `Cn1ccc2c(-c3ncc(Nc4ccc(N5CCC[C@H](C(C)(C)O)C5)cn4)c4c3CNC4=O)ccnc21` [I-211, 7-[[5-[(3S)-3-(1-hydroxy-1-methyl-ethyl)-1-piperidyl]-2-pyridyl]-amino]-4-(1-methylpyrrolo [2,3-b]pyridin-4-yl)-2,3-dihydropyrrolo [3,4-c]pyridin-1-one], the IC50 is reported as < 100 nM. `Cn1ccc2c(-c3ncc(Nc4ccc(N5CCC[C@@H](C(C)(C)O)C5)cn4)c4c3CNC4=O)ccnc21` [I-212, 7-[[5-[(3R)-3-(1-hydroxy-1-methyl-ethyl)-1-piperidyl]-2-pyridyl]amino]-4-(1-methylpyrrolo [2,3-b]pyridin-4-yl)-2,3-dihydropyrrolo [3,4-c]pyridin-1-one] was tested, and the IC50 was < 100 nM. `CC(C)(O)[C@H]1CCCN(c2ccc(Nc3ccc(-c4cnc5cc(F)ccn45)c4c3C(=O)NC4)nc2)C1` [I-213, 4-(7-fluoroimidazo [1,2-a]pyridin-3-yl)-7-[[5-[(3S)-3-(1-hydroxy-1-methyl-ethyl)-1-piperidyl]-2-pyridyl]amino] isoindolin-1-one] was tested, and the IC50 was < 100 nM. In the case of `C[C@H](O)C1CCN(c2ccc(Nc3ccc(-c4cnc5cc(F)ccn45)c4c3C(=O)NC4)nc2)CC1` [I-214, 4-(7-fluoroimidazo [1,2-a]pyridin-3-yl)-7-[[5-[4-[(1S)-1-hydroxyethyl]-l-piperidyl]-2-pyridyl]amino] isoindolin-1-one], the IC50 is reported as < 100 nM. `Cc1cnc2c(-c3ccc(Nc4ccc(N5CCC(O)CC5)cn4)c4c3CNC4=O)cccn12` [I-215, 7-[[5-(4-hydroxy-1-piperidyl)-2-pyridyl]-amino]-4-(3-methylimidazo [1,2-a]pyridin-8-yl)isoindolin-1-one] was tested, and the IC50 was 100 to 1000 nM. In the case of `Cn1ccc2c(-c3ncc(Nc4ccc(N5CCC[C@H](C(C)(C)O)C5)cn4)c4c3CNC4=O)cccc21` [I-216, 7-[[5-[(3S)-3-(1-hydroxy-1-methyl-ethyl)-1-piperidyl]-2-pyridyl]-amino]-4-(1-methylindol-4-yl)-2,3-dihydropyrrolo [3,4-c]pyridin-1-one], the IC50 is reported as < 100 nM. `Cn1ccc2c(-c3ncc(Nc4ccc([C@H]5CCOC5)cn4)c4c3CNC4=O)ccnc21` [I-217, (R)-4-(1-methyl-1H-pyrrolo[2,3-b]pyridin-4-yl)-7-((5-(tetrahydro-furan-3-yl)pyridin-2-yl)amino)-2,3-dihydro-1H-pyrrolo[3,4-c]pyridin-1-one] was tested, and the IC50 was < 100 nM. `O=C1NCc2c(-c3cnc4cc(F)ccn34)ccc(Nc3ccc([C@H]4CCOC4)cn3)c21` [I-218, (R)-4-(7-fluoroimidazo [1,2-a]pyridin-3-yl)-7-((5-(tetrahydrofuran-3-yl)pyridin-2-yl)amino)isoin-dolin-1-one] was tested, and the IC50 was < 100 nM. In the case of `Cn1ccc2c(-c3ncc(Nc4ccc([C@@H]5CCOC5)cn4)c4c3CNC4=O)ccnc21` [I-219, (S)-4-(1-methyl-1H-pyrrolo[2,3-b]pyridin-4-yl)-7-((5-(tetrahydro-furan-3-yl)pyridin-2-yl)amino)-2,3-dihydro-1H-pyrrolo[3,4-c]pyridin-1-one], the IC50 is reported as < 100 nM. `CC(C)(O)[C@@H]1CCCN(c2ccc(Nc3cnc(-c4cnc5ccccn45)c4c3C(=O)NC4)nc2)C1` [I-220, 7-[[5-[(3R)-3-(1-hydroxy-1-methyl-ethyl)-1-piperidyl]-2-pyridyl]-amino]-4-imidazo[1,2-a]pyridin-3-yl-2,3-dihydropyrrolo [3,4-c]pyridin-1-one] was tested, and the IC50 was < 100 nM. With `O=C1NCc2c(-c3cnc4cc(F)ccn34)ccc(Nc3ccc([C@@H]4CCOC4)cn3)c21` [I-222, (S)-4-(7-fluoroimidazo [1,2-a]pyridin-3-yl)-7-((5-(tetrahydro-furan-3-yl)pyridin-2-yl)amino)isoin-dolin-1-one] the IC50 was < 100 nM. With `Cn1ccc2c(-c3ncc(Nc4ccc(N5CCC[C@@H](C(C)(C)O)C5)cn4)c4c3CNC4=O)cccc21` [I-223, 7-[[5-[(3R)-3-(1-hydroxy-1-methyl-ethyl)-1-piperipyl]-2-pyridyl]-amino]-4-(1-methylindol-4-yl)-2,3-dihydropyrrolo [3,4-c]pyridin-1-one] the IC50 was < 100 nM. With `CC(C)(O)C1CCN(c2ccc(Nc3ccc(-c4cnc5cc(F)ccn45)c4c3C(=O)NC4)nc2)CC1` [I-224] the IC50 was < 100 nM. For `Cc1ccn2c(-c3ccc(Nc4ccc(N5CCC[C@H](C(C)(C)O)C5)cn4)c4c3CNC4=O)cnc2n1` [I-225, 7-[[5-[(3S)-3-(1-hydroxy-1-methyl-ethyl)-1-piperidyl]-2-pyridyl]-amino]-4-(7-methylimidazo [1,2-a]pyrimidin-3-yl)isoindolin-1-one], the IC50 was < 100 nM. Work on `CC(C)(O)[C@@H]1CCCN(c2ccc(Nc3cnc(-c4cnc5cc(F)ccn45)c4c3C(=O)NC4)nc2)C1` [I-226, (R)-4-(7-fluoroimidazo[1,2-a]pyridin-3-yl)-7-((5-(3-(2-hydroxypropan-2-yl)piperidin-1-yl)pyridin-2-yl)amino)-2,3-dihydro-1H-pyrrolo[3,4-c]pyridin-1-one] yielded an IC50 of 100 to 1000 nM. In the case of `CN(C)CCNC(=O)C(C)(C)c1ccc(Nc2ccc(-c3cnc4cc(F)ccn34)c3c2C(=O)NC3)nc1` [I-227, N-[2-(dimethylami-no)ethyl]-2-[6-[[7-(7-fluoroimidazo [1,2-a]pyridin-3-yl)-3-oxo-isoindolin-4-yl]amino]-3-pyridyl]-2-methyl-propanamide], the IC50 is reported as < 100 nM. In the case of `CNC1CCN(c2cccc(Nc3cnc(-c4ccnc5c4ccn5C)c4c3C(=O)NC4)n2)CC1` [I-228, 7-[[6-[4-(methylamino)-1-piperidyl]-2-pyridyl]amino]-4-(1-methylpyrrolo [2,3-b]pyridin-4-yl)-2,3-dihydropyrrolo [3,4-c]pyridin-1-one], the IC50 is reported as 100 to 1000 nM. In the case of `Cc1cc2c(-c3ncc(Nc4ccc(N5CCC[C@H](C(C)(C)O)C5)cn4)c4c3CNC4=O)ccnc2n1C` [I-229], the IC50 is reported as < 100 nM. For `CN1CCN(c2cccc(Nc3ccc(-c4cnc5cc(F)ccn45)c4c3C(=O)NC4)n2)CC1` [I-230, 4-(7-fluoroimidazo [1,2-a]pyridin-3-yl)-7-[[6-(4-methylpiperazin-1-yl)-2-pyridyl)amino] isoindolin-1-one], the IC50 was < 100 nM. With `Cn1ccc2c(-c3ncc(Nc4cccc(N5CCC[C@@H](N)C5)n4)c4c3CNC4=O)ccnc21` [I-231, 7-[[6-[(3R)-3-amino-1-piperidyl]-2-pyridyl]-amino]-4-(1-methylpyrrolo [2,3-b]pyridin-4-yl)-2,3-dihydropyrrolo [3,4-c]pyridin-1-one] the IC50 was < 100 nM. With `Cn1ccc2c(-c3ncc(Nc4cccc(N5CCNCC5)n4)c4c3CNC4=O)ccnc21` [I-232, 4-(1-methylpyrrolo [2,3-b]pyridin-4-yl)-7-[(6-piperazin-1-yl-2-pyridyl)amino]-2,3-dihydropyrrolo [3,4-c]pyridin-1-one] the IC50 was < 100 nM. In the case of `Cc1ccn2c(-c3ccc(Nc4ccc(N5CCC[C@@H](C(C)(C)O)C5)cn4)c4c3CNC4=O)cnc2n1` [I-233, 7-[[5-[(3R)-3-(1-hydroxy-1-methyl-ethyl)-1-piperidyl)-2-pyridyl)-amino]-4-(7-methylimidazo [1,2-a]pyrimidin-3-yl]isoindolin-1-one], the IC50 is reported as < 100 nM. `CN1CCN(c2cccc(Nc3ccc(-c4cnc5cnccn45)c4c3C(=O)NC4)n2)CC1` [I-234, 4-imidazo[1,2-a]pyrazin-3-yl-7-[[6-(4-methylpiperazin-1-yl)-2-pyridyl]-amino]isoindolin-1-one] was tested, and the IC50 was 100 to 1000 nM. `COCCN(C)c1ccc(Nc2ccc(-c3cnc4cc(F)ccn34)c3c2C(=O)NC3)nc1` [I-235, 4-(7-fluoroimidazo [1,2-a]pyridin-3-yl)-7-[[5-[2-methoxyethyl (methyl)amino]-2-pyridyl]amino] isoindolin-1-one] was tested, and the IC50 was < 100 nM. `CN1CCN(c2cccc(Nc3ccc(-c4cnc5cc(Cl)ccn45)c4c3C(=O)NC4)n2)CC1` [I-236, 4-(7-chloroimidazo [1,2-a]pyridin-3-yl)-7-[[6-(4-methylpiperazin-1-yl)-2-pyridyl]amino] isoindolin-1-one] was tested, and the IC50 was < 100 nM. Work on `Cc1cc2c(-c3ncc(Nc4ccc(N5CCC[C@@H](C(C)(C)O)C5)cn4)c4c3CNC4=O)ccnc2n1C` [I-237, 4-[1,2-dimethylpyrrolo [2,3-b]pyridin-4-yl)-7-[[5-[(3R)-3-(1-hydroxy-1-methyl-ethyl)-1-piperidyl]-2-pyridyl]amino]-2,3-dihydropyrrolo [3,4-c]pyridin-1-one] yielded an IC50 of 100 to 1000 nM. For `O=C1NCc2c(-c3cnc4cc(F)ccn34)ccc(Nc3ccc(CN4CCOCC4)cn3)c21` [I-238, 4-(7-fluoroimidazo [1,2-a]pyridin-3-yl)-7-[[5-(morpholino-methyl)-2-pyripyl]amino] isoindolin-1-one], the IC50 was < 100 nM. For `CN[C@@H]1CCCN(c2cccc(Nc3cnc(-c4ccnc5c4ccn5C)c4c3C(=O)NC4)n2)C1` [I-239, 7-[[6-[(3R)-3-(methylamino)-1-piperidyl]-2-pyridyl]-amino]-4-(1-methylpyrrolo [2,3-b]pyridin-4-yl)-2,3-dihydropyrrolo [3,4-c]pyridin-1-one], the IC50 was 100 to 1000 nM. Compound `Cn1ccc2c(-c3ncc(Nc4cccc(N5CCCNCC5)n4)c4c3CNC4=O)ccnc21` [I-240, 7-[[6-(1,4-diazepan-1-yl)-2-pyridyl]amino]-4-(1-methylpyrrolo [2,3-b]pyridin-4-yl)-2,3-dihydropyrrolo [3,4-c]pyridin-1-one] has an IC50 of 100 to 1000 nM. `Cc1cccn2c(-c3ncc(Nc4ccc(N5CCC[C@H](C(C)(C)O)C5)cn4)c4c3CNC4=O)cnc12` [I-241, 7-[[5-[(3S)-3-(1-hydroxy-1-methyl-ethyl)-1-piperidyl]-2-pyridyl]-amino]-4-(8-methylimidazo [1,2-a]pyridin-3-yl)-2,3-dihydropyrrolo [3,4-c]pyridin-1-one] was tested, and the IC50 was < 100 nM.
